From patent US10273226B2, “Pyrazolyl-heteroarylamides as pesticides” (Bayer Animal Health GmbH, priority 2014, dated 2019) come the findings set out here.

Each structure is given as a SMILES string.

Holding throughout (assay type): in vivo
Experiment [1] relates to Boophilus microplus Parkhurst strain, SP-resistant. The experiment can be described thus: Boophilus microplus dip test. Conditions: application rate 100 ppm, assessed after 7 days. The method, then: Boophilus microplus—Dip Test
Test animals: cattle ticks (Boophilus microplus) Parkhurst strain, SP-resistant
(§1) Solvent: dimethyl sulphoxide
10 mg of active ingredient are dissolved in 0.5 ml of dimethyl sulphoxide. For the purpose of producing a suitable formulation, the active ingredient solution is diluted with water to the concentration desired in each case.
This active ingredient formulation is pipetted into tubes. 8-10 adult engorged female cattle ticks (Boophilus microplus) are transferred into a further tube with holes. The tube is immersed into the active ingredient formulation, and all the ticks are completely wetted. After the liquid has run out, the ticks are transferred on filter discs into plastic dishes and stored in a climate-controlled room.
Efficacy is assessed after 7 days by laying of fertile eggs. Eggs which are not visibly fertile are stored in a climate-controlled cabinet until the larvae hatch after about 42 days. An efficacy of 100% means that none of the ticks has laid any fertile eggs; 0% means that all the eggs are fertile.

The next experiment relates to Amblyomma hebraeum. The experiment is described as follows: Amblyomma hebraeum test (tick nymphs, immersion). The following applies: application rate 100 ppm; tick nymphs immersed one minute; after 42 days. The method, then: as §1
To produce an appropriate active ingredient formulation, 10 mg of active ingredient are mixed with 0.5 ml of dimethyl sulphoxide, and the concentrate is diluted with water to the desired concentration.
Tick nymphs (Amblyomma hebraeum) are placed into perforated plastic cups and immersed in the desired concentration for one minute. The ticks are transferred on filter paper into a Petri dish and stored in a climate-controlled cabinet.
After 42 days, the kill in % is determined. 100% means that all of the ticks have been killed; 0% means that none of the ticks have been killed.

In another experiment the test system is Phaedon cochleariae. The experiment is described as follows: Phaedon cochleariae spray test. Conditions: application rate 100 g/ha; larvae; after 7 days. The procedure, abridged:
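Chinese cabbage leaf discs were sprayed with the compound formulated in water containing 1000 ppm emulsifier. After drying, they were infested with mustard beetle larvae. Efficacy was scored as % larvae killed after 7 days (100% = all dead, 0% = none).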

Experiment [2] concerns Ctenocephalides felis. The experiment is described as follows: Ctenocephalides felis oral test. Conditions: application rate 100 ppm in citrated cattle blood; after 2 days. The procedure, abridged: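 Mortality in % was recorded 2 days after about 20 unfed adult cat fleas were allowed to imbibe citrated cattle blood containing the active ingredient through a parafilm membrane. The compound was first taken up in DMSO and then diluted with the blood to the desired concentration.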

The subject of the next experiment is Lucilia cuprina. The experiment is described as follows: Lucilia cuprina test. Conditions: application rate 100 ppm; L1 larvae; after 2 days. The procedure, abridged: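 About 20 L1 larvae placed in vessels with minced horsemeat treated with compound (DMSO concentrate diluted in water) at the desired concentration. Kill (%) scored after 2 days; 100% means all larvae dead, 0% none.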

In another experiment the test system is Tetranychus urticae. The experiment can be described thus: Tetranychus urticae spray test, OP-resistant. Conditions: application rate 100 g/ha; after 6 days. In a few lines: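 Bean leaf discs (Phaseolus vulgaris) carrying all stages of OP-resistant mites are sprayed with compound formulated in solvent and emulsifier-containing water. Efficacy (% mites killed) is scored after 6 days.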

Experiment [3] has as its system Ctenocephalides felis. The experiment is described as follows: Ctenocephalides felis in vitro contact test with adult cat fleas. The following applies: application rate 5 μg/cm^2 (500 g/ha); after 48 h; fleas dead or moribund. The procedure, abridged:
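Test tubes were coated with 250 μl acetone solution of compound, giving 5 μg/cm^2 at 900 ppm, then dried and stocked with 5-10 adult cat fleas. After 48 h at room temperature and ambient humidity, dead or moribund fleas were counted; efficacy given as % (100% = all dead or moribund).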

The next experiment deals with Boophilus microplus. The experiment is described as follows: Boophilus microplus injection test. Conditions: application rate 20 μg/animal; injection into abdomen; assessed after 7 days. In a few lines:
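Engorged adult female ticks, five per dose, were injected in the abdomen with 1 μl of active ingredient diluted in dimethyl sulphoxide. Animals were kept in dishes under climate control, and egg fertility was assessed after 7 days.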

For another experiment, the system named is Spodoptera frugiperda. The experiment can be described thus: Spodoptera frugiperda spray test. The following applies: application rate 100 g/ha; caterpillars; after 7 days. The procedure, abridged:
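Maize leaf discs were sprayed with compound formulated in solvent plus water containing 1000 ppm emulsifier, dried, then infested with Spodoptera frugiperda caterpillars. Efficacy in % mortality was scored after 7 days (100% all killed, 0% none).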

Another experiment concerns Rhipicephalus sanguineus. The experiment is described as follows: Rhipicephalus sanguineus in vitro contact test with adult brown dog ticks. Conditions: application rate 5 μg/cm^2 (500 g/ha); after 48 h; ticks dead or moribund. The procedure, abridged: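 Test tubes (25 ml) were coated by dissolving active ingredient in acetone p.a., diluting to the required concentration, and spreading 250 μl over the inner walls and base on an orbital shaker at 30 rpm for 2 h. Once dry, 5-10 adult Rhipicephalus sanguineus were added, and tubes were capped with perforated lids and kept horizontal in darkness at room temperature. At 48 h, ticks were knocked down and heated at 45-50° C. for up to 5 min. Those unable to climb away were counted dead or moribund, and efficacy ran from 0% to 100%.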

For the next experiment, the system named is Musca domestica. The experiment is described as follows: Musca domestica test. The following applies: application rate 100 ppm; adult houseflies; after 2 days. In a few lines: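 Percent kill of adult houseflies is recorded 2 days after exposure, where 100% denotes all flies dead and 0% none. Flies (10 per vessel) feed from a sponge carrying sugar solution and the aqueous-diluted DMSO formulation.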

A further experiment deals with Myzus persicae. The experiment can be described thus: Myzus persicae spray test. Conditions: application rate 100 g/ha; after 6 days. The method, then: Myzus persicae—Spray Test
To produce an appropriate active ingredient formulation, 1 part by weight of active ingredient is dissolved using the specified parts by weight of solvent and made up with water containing an emulsifier concentration of 1000 ppm until the desired concentration is attained. To produce further test concentrations, the preparation is diluted with emulsifier-containing water.
Discs of Chinese cabbage leaves (Brassica pekinensis) infested by all stages of the green peach aphid (Myzus persicae) are sprayed with an active ingredient formulation of the desired concentration.
After 6 days, efficacy in % is determined. 100% means that all the aphids have been killed; 0% means that none of the aphids have been killed.

Take `Cn1nc(C(F)(F)C(F)(F)F)c(C(F)(F)F)c1-n1cc(-c2ccc(Cl)c(NC(=O)c3ccc(F)cc3)c2)cn1` [Example 1-022]: the “efficacy (laying of fertile eggs)” value (in experiment [1]; in the experiment with Boophilus microplus) was 100% each time. The “efficacy (kill in %)” value in the experiment on Amblyomma hebraeum, in the experiment on Ctenocephalides felis [2] and in the experiment on Lucilia cuprina was 100% in each case. Moreover, the efficacy in the experiment with Phaedon cochleariae, in the experiment on Tetranychus urticae, with Ctenocephalides felis [3], in the experiment on Spodoptera frugiperda and in the experiment on Rhipicephalus sanguineus was 100% in each case.

Consider `Cn1nc(C(F)(F)C(F)(F)F)c(C(F)(F)F)c1-n1cc(-c2ccc(F)c(NC(=O)c3ccccc3)c2)cn1` [Example 1-026], for which the entries for the “efficacy (kill in %)” value in the experiment with Musca domestica, with Ctenocephalides felis [2] and in the experiment with Lucilia cuprina were 90%, 100% and 100%, respectively. Further, the “efficacy (laying of fertile eggs)” value (in experiment [1]; with Boophilus microplus) was 100% throughout. In addition, the efficacy in the experiment on Phaedon cochleariae, with Tetranychus urticae, in the experiment with Ctenocephalides felis [3], with Myzus persicae, in the experiment with Spodoptera frugiperda and with Rhipicephalus sanguineus was 100% in each case.

As for `Cc1ccc(-c2cnn(-c3c(C(F)(F)F)c(C(F)(F)C(F)(F)F)nn3C)c2)cc1NC(=O)c1ccc(F)cc1` [Example 1-038], the “efficacy (laying of fertile eggs)” value (in [1]; with Boophilus microplus) was 100% throughout. The “efficacy (kill in %)” value with Amblyomma hebraeum, in the experiment on Ctenocephalides felis [2] and in the experiment with Lucilia cuprina was 100% in each case. Besides, the efficacy in the experiment with Phaedon cochleariae, in the experiment on Tetranychus urticae, in the experiment with Spodoptera frugiperda and in the experiment with Rhipicephalus sanguineus was 100% throughout.

Turning to `Cn1nc(C(F)(F)C(F)(F)F)c(C(F)(F)F)c1-n1cc(-c2ccc(F)c(NC(=O)c3ccc(Cl)nc3)c2)cn1` [Example 1-099], the “efficacy (kill in %)” value with Musca domestica, in the experiment on Ctenocephalides felis [2] and in the experiment on Lucilia cuprina was 100% in each case. For the same compound, the “efficacy (laying of fertile eggs)” value (in experiment [1]; in the experiment on Boophilus microplus) was 100% each time. Moreover, the efficacy with Phaedon cochleariae, with Tetranychus urticae, in the experiment on Ctenocephalides felis [3], in the experiment on Myzus persicae, in the experiment with Spodoptera frugiperda and with Rhipicephalus sanguineus was 100% in each case.

For `Cn1nc(C(F)(F)C(F)(F)F)c(C(F)(F)F)c1-n1cc(-c2ccc(F)c(NC(=O)c3ccc(C#N)nc3)c2)cn1` [Example 1-098], the “efficacy (laying of fertile eggs)” value (in [1]; with Boophilus microplus) was 100% each time. For the same compound, the efficacy in the experiment with Phaedon cochleariae turned out to be 100%; with Tetranychus urticae it was 100%; in the experiment with Ctenocephalides felis [3], 100%; with Myzus persicae it was 100%; in the experiment on Spodoptera frugiperda, 100%; with Rhipicephalus sanguineus it was 80%. For the same compound, the “efficacy (kill in %)” value in the experiment on Ctenocephalides felis [2] and in the experiment with Lucilia cuprina was 100% in each case.

On to `Cn1nc(C(F)(F)C(F)(F)F)c(C(F)(F)F)c1-n1cc(-c2ccc(F)c(NC(=O)c3ccc(F)nc3)c2)cn1` [Example 1-100], for which the “efficacy (kill in %)” value with Musca domestica, with Ctenocephalides felis [2] and in the experiment on Lucilia cuprina was 100% each time. Besides, the “efficacy (laying of fertile eggs)” value (in [1]; in the experiment with Boophilus microplus) was 100% in each case. The efficacy in the experiment with Phaedon cochleariae, in the experiment with Tetranychus urticae, with Ctenocephalides felis [3], in the experiment on Myzus persicae, with Spodoptera frugiperda and in the experiment with Rhipicephalus sanguineus was 100% throughout.

With `Cn1nc(C(F)(F)C(F)(F)F)c(C(F)(F)F)c1-n1cc(-c2ccc(F)c(NC(=O)c3ccc(F)cc3)c2)cn1` [Example 1-027], the “efficacy (kill in %)” value in the experiment on Musca domestica, in the experiment on Ctenocephalides felis [2] and in the experiment with Lucilia cuprina was 100% in each case. Besides, the “efficacy (laying of fertile eggs)” value (in experiment [1]; in the experiment on Boophilus microplus) was 100% throughout. The efficacy with Phaedon cochleariae, in the experiment with Tetranychus urticae, in the experiment on Ctenocephalides felis [3], in the experiment on Myzus persicae, in the experiment with Spodoptera frugiperda and in the experiment with Rhipicephalus sanguineus was 100% each time.

As to `Cn1nc(C(F)(F)C(F)(F)F)c(C(F)(F)F)c1-n1cc(-c2ccc(F)c(NC(=O)c3ccnc(F)c3)c2)cn1` [Example 1-089], the “efficacy (kill in %)” value with Musca domestica, in the experiment with Ctenocephalides felis [2] and in the experiment on Lucilia cuprina was 100% throughout. Moreover, the “efficacy (laying of fertile eggs)” value (in [1]; in the experiment with Boophilus microplus) was 100% in each case. Also, the efficacy in the experiment with Phaedon cochleariae is given as 100%; with Tetranychus urticae, 100%; with Ctenocephalides felis [3], 100%; with Myzus persicae it was 90%; in the experiment on Spodoptera frugiperda it was 100%; in the experiment with Rhipicephalus sanguineus it was 100%.

Regarding `Cn1nc(C(F)(F)C(F)(F)F)c(C(F)(F)F)c1-n1cc(-c2cccc(NC(=O)c3ccccc3)c2)cn1` [Example 1-010], the “efficacy (kill in %)” value in the experiment with Musca domestica, with Ctenocephalides felis [2] and with Lucilia cuprina was 100% each time. Also, the entries for the “efficacy (laying of fertile eggs)” value (in experiment [1]; in the experiment on Boophilus microplus) were 90% and 100%, respectively. Moreover, the efficacy in the experiment on Phaedon cochleariae, in the experiment with Tetranychus urticae, in the experiment on Ctenocephalides felis [3], in the experiment with Myzus persicae, in the experiment on Spodoptera frugiperda and in the experiment on Rhipicephalus sanguineus was 100% throughout.

Turning to `COc1cc(C(=O)Nc2cc(-c3cnn(-c4c(C(F)(F)F)c(C(F)(F)C(F)(F)F)nn4C)c3)ccc2F)ccc1F` [Example 1-094], the “efficacy (kill in %)” value in the experiment with Musca domestica, in the experiment with Ctenocephalides felis [2] and in the experiment on Lucilia cuprina was 100% in each case. Further, the “efficacy (laying of fertile eggs)” value (in [1]; in the experiment with Boophilus microplus) was 100% throughout. Besides, the efficacy worked out at 100% in the experiment with Phaedon cochleariae; 100% in the experiment on Tetranychus urticae; 100% in the experiment on Ctenocephalides felis [3]; 83% in the experiment with Spodoptera frugiperda; 100% in the experiment on Rhipicephalus sanguineus.
